According to ChEMBL document CHEMBL1949605, “Discovery of aminoheterocycles as potent and brain penetrant prolylcarboxypeptidase inhibitors” (Bioorg Med Chem Lett, 2012):

Key:
[1] = biological target: T1, Lysosomal Pro-X carboxypeptidase (Mus musculus, UniProt Q7TMR0); assay: Inhibition of mouse recombinant PrCP using Mca-Ala-Pro-Lys(Dnp)-OH as substrate after 30 mins by fluorescence analysis
T1 sequence (Q7TMR0 whole entry): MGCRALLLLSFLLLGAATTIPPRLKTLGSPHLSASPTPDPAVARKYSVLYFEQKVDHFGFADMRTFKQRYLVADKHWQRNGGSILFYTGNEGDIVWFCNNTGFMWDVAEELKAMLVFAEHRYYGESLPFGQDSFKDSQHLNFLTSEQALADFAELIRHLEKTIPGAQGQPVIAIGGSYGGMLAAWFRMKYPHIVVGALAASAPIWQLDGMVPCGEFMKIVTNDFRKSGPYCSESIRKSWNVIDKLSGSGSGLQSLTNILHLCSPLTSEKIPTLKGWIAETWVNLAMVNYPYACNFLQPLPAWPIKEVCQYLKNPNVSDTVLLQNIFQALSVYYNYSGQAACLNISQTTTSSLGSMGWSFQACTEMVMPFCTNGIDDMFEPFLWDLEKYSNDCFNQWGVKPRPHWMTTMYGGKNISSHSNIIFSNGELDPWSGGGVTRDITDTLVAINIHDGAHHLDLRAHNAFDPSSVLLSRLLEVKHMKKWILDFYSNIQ

[2] = biological target: T1, Lysosomal Pro-X carboxypeptidase; assay: Inhibition of mouse recombinant PrCP assessed as angiotensin 3 cleavage after 8 mins by LC/MS analysis
[3] = biological target: T2, Lysosomal Pro-X carboxypeptidase (Homo sapiens) (UniProt P42785); assay: Inhibition of human recombinant PrCP using Mca-Ala-Pro-Lys(Dnp)-OH as substrate at 5 uM after 30 mins by fluorescence analysis
T2 sequence (whole entry): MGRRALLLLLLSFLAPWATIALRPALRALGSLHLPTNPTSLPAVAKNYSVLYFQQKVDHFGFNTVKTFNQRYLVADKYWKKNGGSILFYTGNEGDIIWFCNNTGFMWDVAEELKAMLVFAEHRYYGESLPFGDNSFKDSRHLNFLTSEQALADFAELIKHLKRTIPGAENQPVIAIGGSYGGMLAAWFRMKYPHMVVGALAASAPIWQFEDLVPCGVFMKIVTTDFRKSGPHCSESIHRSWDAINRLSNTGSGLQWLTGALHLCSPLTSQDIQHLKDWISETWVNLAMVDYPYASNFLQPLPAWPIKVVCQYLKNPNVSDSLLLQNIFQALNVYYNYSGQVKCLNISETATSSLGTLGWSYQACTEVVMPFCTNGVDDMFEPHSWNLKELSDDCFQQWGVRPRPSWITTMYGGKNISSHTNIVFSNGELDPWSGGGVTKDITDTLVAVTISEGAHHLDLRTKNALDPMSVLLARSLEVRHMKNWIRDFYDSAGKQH

[4] = Ratio of drug uptake in brain to plasma of CF-1 mouse at 1 mg/kg, iv measured 4 hrs post-dosing; format: ADME, organism-based; set-up: dose 1 mg/kg, route intravenous; settings: read-out: BPR
[5] = Drug uptake in CF-1 mouse brain at 1 mg/kg, iv measured after 4 hrs post dosing; format: ADME, organism-based; set-up: dose 1 mg/kg, route intravenous; settings: read-out: Drug uptake
[6] = Plasma concentration in CF-1 mouse at 1 mg/kg, iv measured after 4 hrs post dosing; format: ADME, organism-based; set-up: dose 1 mg/kg, route intravenous
[7] = biological target: T3, Lysosomal Pro-X carboxypeptidase (Homo sapiens, UniProt P42785); assay: Inhibition of human recombinant PrCP using Mca-Ala-Pro-Lys(Dnp)-OH as substrate after 30 mins by fluorescence analysis
T3 sequence (P42785 whole entry): T2 sequence (whole entry)

Row | Compound | IC50 [1] | IC50 [2] | further results
1 | C[C@@H](c1ccc(Cl)cc1)N(C)c1cc(N2CCCC(C(C)(C)O)C2)ncn1 (stereo in doubt; 36a) | 0.146 µM | 2.21 µM | 
2 | C[C@@H](c1ccc(Cl)cc1)N(C)c1cc(N2CCCC(C(C)(C)O)C2)ncn1 (mixture of isomers) | 0.797 µM | 5 µM | 
3 | Clc1cc2nc([C@@H]3CCCN3c3cc(N4CCN(Cc5ccccc5)CC4)ncn3)[nH]c2cc1Cl | 0.413 µM | > 20 µM | 
4 | Clc1cc2nc([C@@H]3CCCN3c3cc(N4CCO[C@H](c5ccccc5)C4)ncn3)[nH]c2cc1Cl |  | > 20 µM | 
5 | FC(F)(F)c1ccccc1-c1ccnc(N2CCC[C@H]2c2nc3cc(Cl)c(Cl)cc3[nH]2)c1 |  |  | inhibition [3]: 46%
6 | COC(=O)N[C@H]1CC[C@H](Nc2cc(N[C@@H](C)c3ccc(Cl)cc3)ncn2)CC1 | 0.026 µM | 0.159 µM | 
7 | Clc1cc2nc([C@@H]3CCCN3c3cc(N4CCC(c5ccccn5)C4)ncn3)[nH]c2cc1Cl (mixture of isomers) |  | > 20 µM | 
8 | C[C@H](Nc1cc(N2CCCC(C(C)(C)O)C2)ncn1)c1ccc(Cl)cc1 (stereo not given in full) |  |  | Kp at 4 h [4]: 1.4; concentration at 4 h [5]: 400 nM; concentration at 4 h [6]: 291 nM
9 | Clc1cc2nc([C@@H]3CCCN3c3cc(N4CCC(Cn5cccn5)CC4)ncn3)[nH]c2cc1Cl | 0.206 µM | > 20 µM | 
10 | Clc1cc2nc([C@@H]3CCCN3c3cc(NCC4CCCCC4)ncn3)[nH]c2cc1Cl |  |  | IC50 [7]: > 10 µM
11 | Clc1cc2nc([C@@H]3CCCN3c3cc(N4CCO[C@@H](c5ccccc5)C4)ncn3)[nH]c2cc1Cl |  | > 20 µM | Kp at 4 h [4]: 0.79; concentration at 4 h [5]: 242 nM; concentration at 4 h [6]: 304 nM

Now from value to compound, other results behind:

Row | IC50 [1] | IC50 [2] | Compound | further results
12 | 0.105 µM |  | C[C@H](Nc1cc(N[C@H]2CC[C@H](NS(C)(=O)=O)CC2)ncn1)c1ccc(Cl)cc1 | 
13 |  | > 20 µM | CC(C)(O)C1CCCN(c2cc(N3CCC[C@H]3c3nc4cc(Cl)c(Cl)cc4[nH]3)ncn2)C1 (mixture of isomers) | 
14 | 0.046 µM | 9 µM | COc1ccc(C2CN(c3cc(N4CCC[C@H]4c4nc5cc(Cl)c(Cl)cc5[nH]4)ncn3)CCO2)cc1 (stereo not given in full) | 
15 | 0.018 µM | 0.355 µM | Clc1cc2nc([C@@H]3CCCN3c3cc(N4CCCC(N5CCc6c(cccc6-c6cccnc6)C5)C4)ncn3)[nH]c2cc1Cl (stereo in doubt; 28b) | 
16 | 0.075 µM |  | C[C@H](Nc1cc(N[C@H]2CC[C@H](c3ccccc3)CC2)ncn1)c1ccc(Cl)cc1 | 
17 |  | > 20 µM | OC1(c2ccccc2)CCN(c2cc(N3CCC[C@H]3c3nc4cc(Cl)c(Cl)cc4[nH]3)ncn2)C1 (mixture of isomers) | 
18 | 0.01 µM | 0.345 µM | Clc1cc2nc([C@@H]3CCCN3c3cc(N4CCCC(N5CCc6c(cccc6-c6cccnc6)C5)C4)ncn3)[nH]c2cc1Cl (stereo in doubt; 28a) | Kp at 4 h [4]: 0.29; concentration at 4 h [5]: 108 nM; concentration at 4 h [6]: 367 nM
19 |  | 0.025 µM | C[C@@H](c1ccc(-c2ccccc2)cc1)[C@H](NC(=O)C(C)(C)N)C(=O)N1CCC[C@H]1c1nc2cc(Cl)c(Cl)cc2[nH]1 | 
